Assay results reported in ChEMBL document CHEMBL1137456, “The synthesis and biological activity of pentafluorosulfanyl analogs of fluoxetine, fenfluramine, and norfenfluramine” (Bioorg Med Chem, 2007).

Key:
Assay type in all cases: cell-based
Details in all cases: COS-7
[1] = target: T1, 5-hydroxytryptamine receptor 2C (Rattus norvegicus) (UniProt P08909); experiment: Inhibition of rat 5HT2C expressed in COS7 cells at 10 uM
T1 sequence (whole entry): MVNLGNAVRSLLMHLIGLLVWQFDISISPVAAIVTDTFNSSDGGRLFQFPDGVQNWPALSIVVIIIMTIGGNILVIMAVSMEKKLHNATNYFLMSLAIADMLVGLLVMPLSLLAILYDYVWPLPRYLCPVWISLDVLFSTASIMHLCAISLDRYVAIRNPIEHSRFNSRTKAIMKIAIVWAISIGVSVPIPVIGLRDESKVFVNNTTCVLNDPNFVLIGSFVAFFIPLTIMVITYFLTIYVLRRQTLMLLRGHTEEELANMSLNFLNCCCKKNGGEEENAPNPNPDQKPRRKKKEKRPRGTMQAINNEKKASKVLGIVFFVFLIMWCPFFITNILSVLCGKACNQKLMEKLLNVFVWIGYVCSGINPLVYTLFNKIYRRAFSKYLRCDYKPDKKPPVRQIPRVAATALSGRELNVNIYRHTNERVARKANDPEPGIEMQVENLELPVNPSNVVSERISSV

[2] = target: 5-hydroxytryptamine receptor 6 (Homo sapiens) (UniProt P50406); experiment: Inhibition of human 5HT6 expressed in COS7 cells at 10 uM
Chain of 5-hydroxytryptamine receptor 6 (Homo sapiens) (P50406 whole entry): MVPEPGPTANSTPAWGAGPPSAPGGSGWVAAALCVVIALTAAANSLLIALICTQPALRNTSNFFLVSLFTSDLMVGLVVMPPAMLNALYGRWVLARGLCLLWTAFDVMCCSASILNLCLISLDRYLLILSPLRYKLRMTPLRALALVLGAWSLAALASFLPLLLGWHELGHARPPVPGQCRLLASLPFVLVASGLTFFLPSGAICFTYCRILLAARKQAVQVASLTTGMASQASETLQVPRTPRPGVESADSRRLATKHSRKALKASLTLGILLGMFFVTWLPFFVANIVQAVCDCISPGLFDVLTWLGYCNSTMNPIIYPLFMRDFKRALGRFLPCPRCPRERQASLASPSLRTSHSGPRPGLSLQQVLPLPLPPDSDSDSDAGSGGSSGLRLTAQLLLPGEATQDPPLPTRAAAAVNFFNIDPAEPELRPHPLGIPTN

[3] = target: 5-hydroxytryptamine receptor 5A (Homo sapiens) (UniProt P47898); experiment: Inhibition of human 5HT5A expressed in COS7 cells at 10 uM
Chain of 5-hydroxytryptamine receptor 5A (Homo sapiens) (P47898 whole entry): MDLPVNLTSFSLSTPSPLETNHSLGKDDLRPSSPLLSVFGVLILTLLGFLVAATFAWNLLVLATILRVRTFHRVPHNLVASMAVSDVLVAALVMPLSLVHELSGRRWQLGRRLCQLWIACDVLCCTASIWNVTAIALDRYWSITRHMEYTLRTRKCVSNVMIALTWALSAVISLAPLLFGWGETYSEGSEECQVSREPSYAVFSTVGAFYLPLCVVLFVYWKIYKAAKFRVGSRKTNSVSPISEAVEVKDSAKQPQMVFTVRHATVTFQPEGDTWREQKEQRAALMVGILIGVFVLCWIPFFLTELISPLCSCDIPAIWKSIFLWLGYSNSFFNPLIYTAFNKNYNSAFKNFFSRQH

[4] = target: T2, 5-hydroxytryptamine receptor 1A (Homo sapiens) (UniProt P08908); experiment: Inhibition of human 5HT1A expressed in COS7 cells at 10 uM
T2 sequence (whole entry): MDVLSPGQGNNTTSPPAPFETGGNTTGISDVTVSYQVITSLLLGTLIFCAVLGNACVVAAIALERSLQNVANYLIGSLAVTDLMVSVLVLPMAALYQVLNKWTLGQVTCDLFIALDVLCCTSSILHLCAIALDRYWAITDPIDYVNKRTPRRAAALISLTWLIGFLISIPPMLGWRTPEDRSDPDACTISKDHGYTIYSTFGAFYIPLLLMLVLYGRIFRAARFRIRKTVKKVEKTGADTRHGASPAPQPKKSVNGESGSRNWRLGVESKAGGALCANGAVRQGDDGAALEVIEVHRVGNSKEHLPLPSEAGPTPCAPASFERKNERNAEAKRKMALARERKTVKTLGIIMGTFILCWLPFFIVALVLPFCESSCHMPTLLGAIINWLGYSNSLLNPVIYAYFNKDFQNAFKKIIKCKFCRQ

[5] = target: 5-hydroxytryptamine receptor 7 (Homo sapiens) (UniProt P34969); experiment: Inhibition of human 5HT7 expressed in COS7 cells at 10 uM
Chain of 5-hydroxytryptamine receptor 7 (Homo sapiens) (P34969 whole entry): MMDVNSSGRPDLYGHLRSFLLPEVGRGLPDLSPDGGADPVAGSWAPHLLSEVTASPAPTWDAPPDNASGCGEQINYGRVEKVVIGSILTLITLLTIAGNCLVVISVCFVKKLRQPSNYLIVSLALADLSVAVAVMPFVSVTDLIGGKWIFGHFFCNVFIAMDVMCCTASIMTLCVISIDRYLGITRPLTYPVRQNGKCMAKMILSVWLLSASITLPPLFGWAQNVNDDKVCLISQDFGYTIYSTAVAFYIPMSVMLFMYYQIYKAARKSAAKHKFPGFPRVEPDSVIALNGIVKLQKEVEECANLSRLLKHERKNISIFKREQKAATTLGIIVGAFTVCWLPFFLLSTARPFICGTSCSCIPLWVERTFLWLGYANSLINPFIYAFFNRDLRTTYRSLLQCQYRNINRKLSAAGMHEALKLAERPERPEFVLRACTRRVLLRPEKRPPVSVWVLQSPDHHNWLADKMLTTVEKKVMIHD

[6] = target: 5-hydroxytryptamine receptor 2A (Rattus norvegicus) (UniProt P14842); experiment: Inhibition of rat 5HT2A expressed in COS7 cells at 10 uM
Chain of 5-hydroxytryptamine receptor 2A (Rattus norvegicus) (P14842 whole entry): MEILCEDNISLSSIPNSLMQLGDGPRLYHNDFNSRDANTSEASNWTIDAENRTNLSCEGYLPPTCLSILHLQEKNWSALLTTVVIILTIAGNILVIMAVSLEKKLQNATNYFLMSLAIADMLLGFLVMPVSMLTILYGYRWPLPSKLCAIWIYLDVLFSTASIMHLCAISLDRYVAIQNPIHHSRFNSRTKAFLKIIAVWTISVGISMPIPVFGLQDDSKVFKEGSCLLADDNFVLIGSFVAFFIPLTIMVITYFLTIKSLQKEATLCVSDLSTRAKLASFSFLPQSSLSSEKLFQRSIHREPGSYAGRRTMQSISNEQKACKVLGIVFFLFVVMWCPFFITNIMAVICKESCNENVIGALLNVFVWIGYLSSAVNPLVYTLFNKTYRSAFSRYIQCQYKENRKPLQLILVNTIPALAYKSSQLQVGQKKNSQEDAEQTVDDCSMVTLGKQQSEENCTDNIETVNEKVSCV

[7] = target: T3, 5-hydroxytryptamine receptor 3A (Homo sapiens) (UniProt P46098); experiment: Inhibition of human 5HT3 expressed in COS7 cells at 10 uM
T3 sequence (whole entry): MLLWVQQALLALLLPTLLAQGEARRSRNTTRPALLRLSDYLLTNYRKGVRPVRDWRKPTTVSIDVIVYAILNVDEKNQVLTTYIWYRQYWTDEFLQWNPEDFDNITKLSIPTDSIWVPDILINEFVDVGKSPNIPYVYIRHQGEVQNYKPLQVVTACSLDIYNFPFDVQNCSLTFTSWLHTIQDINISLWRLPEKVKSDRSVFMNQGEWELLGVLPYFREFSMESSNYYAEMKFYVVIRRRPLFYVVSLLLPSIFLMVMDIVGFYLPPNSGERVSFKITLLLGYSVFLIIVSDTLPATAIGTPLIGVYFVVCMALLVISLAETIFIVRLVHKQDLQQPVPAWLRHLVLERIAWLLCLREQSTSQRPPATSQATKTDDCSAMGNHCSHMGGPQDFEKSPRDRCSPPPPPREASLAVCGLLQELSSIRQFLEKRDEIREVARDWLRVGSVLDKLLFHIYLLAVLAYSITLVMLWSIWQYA

[8] = target: 5-hydroxytryptamine receptor 2B (Homo sapiens) (UniProt P41595); experiment: Inhibition of human 5HT2B expressed in COS7 cells at 10 uM
Chain of 5-hydroxytryptamine receptor 2B (Homo sapiens) (P41595 whole entry): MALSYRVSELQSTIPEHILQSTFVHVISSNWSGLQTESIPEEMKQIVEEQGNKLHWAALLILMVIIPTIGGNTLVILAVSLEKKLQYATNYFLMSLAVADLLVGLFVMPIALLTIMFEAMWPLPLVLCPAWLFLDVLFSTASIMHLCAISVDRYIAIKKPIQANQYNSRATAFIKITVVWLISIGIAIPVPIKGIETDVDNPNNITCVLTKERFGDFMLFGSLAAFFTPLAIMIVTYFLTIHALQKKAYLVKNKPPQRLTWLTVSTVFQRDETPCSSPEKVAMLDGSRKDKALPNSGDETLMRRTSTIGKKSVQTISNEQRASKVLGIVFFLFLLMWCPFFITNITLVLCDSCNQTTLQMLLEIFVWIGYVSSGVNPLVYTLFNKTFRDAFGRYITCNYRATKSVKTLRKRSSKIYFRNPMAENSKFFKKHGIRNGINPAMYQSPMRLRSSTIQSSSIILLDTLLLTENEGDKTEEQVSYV

[9] = target: 5-hydroxytryptamine receptor 1E (Homo sapiens) (UniProt P28566); experiment: Inhibition of human 5HT1E expressed in COS7 cells at 10 uM
Chain of 5-hydroxytryptamine receptor 1E (Homo sapiens) (P28566 whole entry): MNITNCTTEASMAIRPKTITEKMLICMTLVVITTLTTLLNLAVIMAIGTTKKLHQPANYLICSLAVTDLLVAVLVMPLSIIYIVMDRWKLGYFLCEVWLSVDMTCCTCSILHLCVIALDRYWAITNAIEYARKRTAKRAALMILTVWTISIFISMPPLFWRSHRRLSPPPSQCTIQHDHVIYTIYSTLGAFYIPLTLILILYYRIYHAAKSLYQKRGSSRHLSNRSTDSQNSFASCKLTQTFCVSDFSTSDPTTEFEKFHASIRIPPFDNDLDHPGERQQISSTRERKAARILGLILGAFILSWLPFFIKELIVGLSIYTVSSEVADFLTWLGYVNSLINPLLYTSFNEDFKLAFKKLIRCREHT

[10] = target: 5-hydroxytryptamine receptor 1D (Homo sapiens) (UniProt P28221); experiment: Inhibition of human 5HT1D expressed in COS7 cells at 10 uM
Chain of 5-hydroxytryptamine receptor 1D (Homo sapiens) (P28221 whole entry): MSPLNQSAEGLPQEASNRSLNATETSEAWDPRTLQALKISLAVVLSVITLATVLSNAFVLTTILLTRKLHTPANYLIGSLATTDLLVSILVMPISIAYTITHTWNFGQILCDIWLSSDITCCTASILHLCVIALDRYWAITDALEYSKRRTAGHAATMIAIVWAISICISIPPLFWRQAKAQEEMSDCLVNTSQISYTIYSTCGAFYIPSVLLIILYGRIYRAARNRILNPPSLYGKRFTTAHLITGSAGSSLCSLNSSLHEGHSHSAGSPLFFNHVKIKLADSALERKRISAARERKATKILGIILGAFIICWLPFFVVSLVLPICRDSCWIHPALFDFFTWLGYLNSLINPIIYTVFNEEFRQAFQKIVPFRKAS

[11] = target: 5-hydroxytryptamine receptor 1B (Homo sapiens) (UniProt P28222); experiment: Inhibition of human 5HT1B expressed in COS7 cells at 10 uM
Chain of 5-hydroxytryptamine receptor 1B (Homo sapiens) (P28222 whole entry): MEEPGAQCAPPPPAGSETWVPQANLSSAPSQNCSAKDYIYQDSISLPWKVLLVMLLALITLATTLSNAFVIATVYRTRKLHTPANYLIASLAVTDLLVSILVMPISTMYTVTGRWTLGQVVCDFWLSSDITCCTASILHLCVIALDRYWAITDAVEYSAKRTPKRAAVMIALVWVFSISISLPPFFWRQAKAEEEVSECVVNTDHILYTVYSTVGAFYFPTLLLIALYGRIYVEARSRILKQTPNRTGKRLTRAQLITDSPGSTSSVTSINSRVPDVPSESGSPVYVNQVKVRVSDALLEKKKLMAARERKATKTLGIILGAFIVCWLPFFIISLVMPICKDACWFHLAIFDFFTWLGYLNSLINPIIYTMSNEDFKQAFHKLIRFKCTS

CCNC(C)Cc1cccc(S(F)(F)(F)(F)F)c1 (stereo not drawn)
inhibition [1]: 72.8%
inhibition [2]: 50%
inhibition [3]: 62.7%
inhibition [4]: 85.5%
inhibition [5]: 50%
inhibition [6]: 53.2%
inhibition [7]: 14.6%
inhibition [8]: 85.3%
inhibition [9]: 7.3%
inhibition [10]: 15.2%
inhibition [11]: 63.5%

CNCCC(Oc1ccc(S(F)(F)(F)(F)F)cc1)c1ccccc1 (stereo not drawn)
inhibition [1]: 75.8%
inhibition [2]: 1.5%
inhibition [3]: 25%
inhibition [4]: -3%
inhibition [5]: 12%
inhibition [6]: 97.3%
inhibition [7]: 6.8%
inhibition [8]: 71.9%
inhibition [9]: 77.8%
inhibition [10]: 12.7%
inhibition [11]: 3.4%

CC(N)Cc1cccc(S(F)(F)(F)(F)F)c1 (stereo not drawn)
inhibition [1]: 94.6%
inhibition [2]: 50%
inhibition [3]: 31.3%
inhibition [4]: 50%
inhibition [5]: 50%
inhibition [6]: 85.9%
inhibition [7]: -6.1%
inhibition [8]: 89.6%
inhibition [9]: 23.4%
inhibition [10]: 73.7%
inhibition [11]: 62.9%
